Source: US20120116069A1, “GLUCOSE METABOLISM-IMPROVING AGENT AND GLUCOSE METABOLISM-IMPROVING COMPOSITION” (LION CORPORATION, priority 2009, published 2012)
Marks after values point to notes of the source that are not given here.

Key:
[1] = test system: model mice of hyperglycemia (KKAy mouse); assay: Blood sugar level of KKAy mice after one-week main breeding on high fat diet containing PT or PD; assay type: in vivo; conditions: 0.1% by mass in high fat diet (control group 335.4 mg/dL)
Procedure: Twenty-four model mice of hyperglycemia (KKAy mouse (product of CLEA Japan, Inc.), male, four weeks old) were preliminarily bred for one week in individual cages under the following conditions: temperature: room temperature (22° C.±1° C.), humidity: 50%±5%, and light-dark cycle: 12 hours. Eight grams per day of CE-2 (product of CLEA Japan, Inc.) was given to each mouse as feed during the preliminary breeding, while water was given ad libitum. After completion of the preliminary breeding, the mice were measured for body weight and blood sugar level. Then, they were divided into three groups, each containing eight mice, so that the body weights and blood sugar levels were averaged in the three groups, followed by main breeding in a manner described below. […] GB SENSOR (product of Sanko Junyaku Co., Ltd.) using the whole blood sampled from the tale vein of the mouse. The mice of one group were subjected to main breeding for one week under the conditions that eight grams per day of a commercially available high fat diet (trade name: Quick Fat, product of CLEA Japan, Inc.) was given to each mouse while water was given ad libitum. […] Hereinafter, this group may be referred to as “PD-administered group.” After the one-week main breeding, the mice were measured for blood sugar level and body weight, and then were subjected to measurement of the amount of ^13CO2 excreted.

[2] = test system: cells derived from rat skeletal muscle (L6 cells); assay: Intake of RI-labeled 2-deoxyglucose into differentiated L6 cells; assay type: cell-based; conditions: n=4
Procedure: Cells derived from rat skeletal muscle (L6 cells, product of Dainippon Pharmaceutical Co., Ltd.) were suspended in 15 mL of DMEM (Dulbecco's modified Eagle medium, product of SIGMA Co.) containing 10% by mass FBS (fetal bovine serum, product of GIBCO Co.) and 1% by mass AB (anti-biotic solution, product of SIGMA Co.). The resultant suspension was dispensed into 75-cm^2 culture flasks and then statically cultured at 37° C. under 5% CO2. After having reached subconfluency (80%), each culture was placed in a 24-well plate (product of SUMITOMO BAKELITE CO., LTD.) at 50,000 cells/well. After having reached confluency, the cells were cultured for three days. Then, the medium was exchanged with MEM (minimal essential medium, product of NACALAI TESQUE, INC.) containing 2% by mass FBS and 1% by mass AB to thereby induce differentiation of the L6 cells. Eight days after the induction of differentiation, a solution of panaxatriol (PT) (product of LKT Laboratories, Inc.) in ethanol was added to the resultant medium so that the concentration of panaxatriol (PT) was 1 ppm or 10 ppm. The PT-free well was used as a control for each of these wells. Then, 30 hours after, the medium of each well was exchanged with MEM containing 2% by mass BSA (bovine serum albumin, product of SIGMA Co.) and panaxatriol (PT) at a concentration of 1 ppm or 10 ppm, to thereby terminate sensitization. Furthermore, 18 hours after, the MEM containing 2% by mass BSA was removed, and a KRH buffer (50 mM HEPES (product of SIGMA Co.), pH 7.4, 137 mM sodium chloride (product of Wako Pure Chemical Industries, Ltd.), 4.8 mM potassium chloride (product of Wako Pure Chemical Industries, Ltd.), 1.85 mM calcium chloride (product of Wako Pure Chemical Industries, Ltd.) and 1.3 mM magnesium sulfate (product of Wako Pure Chemical Industries, Ltd.)) was added to the wells at 30 μL/well. Thereafter, 6 μL of RI-labeled 2-deoxyglucose (2-DG, product of American Radiolabeled Chemicals Co.) (final concentration: 6.5 mM (0.5·Ci)) was added to the wells to perform reaction. Five minutes after the initiation of reaction, the cells were washed four times with an ice-cooled KRH buffer to remove 2-DG that had not been taken into the L6 cells. After removal of the KRH buffer, the cells were lysed with 250 μL of 0.05N sodium hydroxide (product of Wako Pure Chemical Industries, Ltd.) and recovered in a vial. In addition, the wells were washed twice with 200 μL of the KRH buffer and recovered in the vial similarly. Then, 3 mL of liquid scintillation cocktail PICOFLOUR (product of PerkinElmer Co., Ltd.) was added to the vial containing the cells recovered, followed by measuring for radioactivity with a liquid scintillation counter (LSC-5100, product of Aloka Co.). […]

| Structure (SMILES) | blood sugar level [1] [mg/dL] | Relative activity (radioactivity of 2-DG taken in, compound-free well = 100) ([2]; 1 ppm) | Relative activity (radioactivity of 2-DG taken in, compound-free well = 100) ([2]; 10 ppm) |
| --- | --- | --- | --- |
| CC1(C)CCC[C@](C)([C@H]2CC[C@]3(C)[C@@H]2[C@H](O)C[C@@H]2[C@@]4(C)CC[C@H](O)C(C)(C)[C@@H]4CC[C@]23C)O1 [PD, panaxadiol] | 231.6 | 130* | 140** |
| CC1(C)CCC[C@](C)([C@H]2CC[C@]3(C)[C@@H]2[C@H](O)C[C@@H]2[C@@]4(C)CC[C@H](O)C(C)(C)[C@@H]4[C@@H](O)C[C@]23C)O1 [PT, panaxatriol] | 199.3 | 132* | 145** |
